From ChEMBL document CHEMBL4828715, “Discovery, Structure-Activity Relationships, and In Vivo Evaluation of Novel Aryl Amides as Brain Penetrant Adaptor Protein 2-Associated Kinase 1 (AAK1) Inhibitors for the Treatment of Neuropathic Pain” (J Med Chem, 2021) come the findings set out here.

Active and inactive are the calls of the source. The rule behind the calls is not given here.

Series [1] in a line: Drug concentration in plasma of C57BL6 mouse at 60 mg/kg, sc. Particulars: in vivo. Format: ADME, organism-based.
The target of series [2] is SRSF protein kinase 3 (Homo sapiens) (UniProt Q9UPE1). Kind of series: Inhibition of wild-type human partial length SRPK3 (P41 to P567 residues) expressed in bacterial expression system assessed as residual binding level at 1 uM by Kinomescan method relative to control.
Series [3] has as its target Citron Rho-interacting kinase (Homo sapiens, UniProt O14578). Kind of series: Inhibition of CRIK (unknown origin) by Kinomescan method.
A short description of series [4]: Drug concentration in brain of Sprague-Dawley rat model of chronic constriction injury-induced neuropathic pain at 30 mg/kg, sc. Format: ADME, organism-based. Particulars: in vivo, read-out: Ct.
Series [5] concerns the target Alpha-2A adrenergic receptor (Homo sapiens, UniProt P08913). In words: Inhibition of alpha 2A adrenergic receptor (unknown origin).
Series [6] addresses AP2-associated protein kinase 1 (Mus musculus) (UniProt Q3UHJ0). In words: In vivo inhibition of AAK1 in C57BL6 mouse assessed as suppression of mu2 phosphorylation in brain lysate at 30 mg/kg, sc measured after 30 mins by Western blot analysis relative to control. Format: functional, organism-based. (Immunoblotting shows a protein as a band on a membrane.)
The subject of series [7] is Rattus norvegicus. Kind of series: Reversal of chronic constriction injury-induced mechanical allodynia in Sprague-Dawley rat model of neuropathic pain at 60 mg/kg, sc measured up to 180 mins relative to control. Format: functional. Particulars: time min <=180.
For series [8], the target named is AP2-associated protein kinase 1 (Homo sapiens, UniProt Q2M2I8). Kind of series: Inhibition of recombinant GST-Xa-tagged human AAK1 (30 to 330 residues) using 5-FAM-labelled Alla-KEEQSQITSQVTGQIGWR-NH2 peptide as substrate incubated for 3 hrs in presence of ATP by electrophoretic analysis.
The target in series [9] is BMP-2-inducible protein kinase (Homo sapiens, UniProt Q9NSY1). In words: Inhibition of wild-type human partial length BIKE (S34 to N329 residues) expressed in bacterial expression system by Kinomescan method.
The nature of series [10]: Unbound drug concentration in plasma of Sprague-Dawley rat model of chronic constriction injury-induced neuropathic pain at 30 mg/kg, sc. Format: ADME, organism-based. The note with it: in vivo.
Series [11] is described as follows: Drug concentration in plasma of C57BL6 mouse at 10 mg/kg, sc. It is filed as ADME, organism-based. The note with it: in vivo.
Series [12] in a line: Drug concentration in brain of Sprague-Dawley rat model of chronic constriction injury-induced neuropathic pain at 10 mg/kg, sc. It is filed as ADME, organism-based. The note with it: in vivo, read-out: Ct.
Series [13] in a line: Drug concentration in brain of Sprague-Dawley rat model of chronic constriction injury-induced neuropathic pain at 1 mg/kg, sc. It is filed as ADME, organism-based. Particulars: in vivo, read-out: Ct.
Series [14] is described as follows: Drug concentration in plasma of Sprague-Dawley rat model of chronic constriction injury-induced neuropathic pain at 3 mg/kg, sc. It is filed as ADME, organism-based. The note with it: in vivo.
The target of series [15] is Phosphatidylinositol 4-phosphate 5-kinase type-1 alpha (Homo sapiens) (UniProt Q99755). In words: Inhibition of wild-type human full length PIP5K1A (M1 to H562 residues) expressed in bacterial expression system assessed as residual binding level at 1 uM by Kinomescan method relative to control.
Series [16] concerns the target Dual specificity protein kinase CLK4 (Homo sapiens, UniProt Q9HAZ1). In words: Inhibition of wild-type human partial length CLK4 (R135 to K481 residues) expressed in bacterial expression system by Kinomescan method.
In series [17] the target is AP2-associated protein kinase 1 (Mus musculus) (UniProt Q3UHJ0). Kind of series: In vivo inhibition of AAK1 in C57BL6 mouse assessed as suppression of mu2 phosphorylation in brain lysate at 3 mg/kg, sc measured after 30 mins by Western blot analysis relative to control. Format: functional, organism-based.
Series [18] concerns Mus musculus. Kind of series: Antinociceptive activity against formalin-induced nociceptive behavior in C57BL6 mouse assessed as reduction in phase 2 hind paw flinching at 10 mg/kg, sc administered 60 mins prior to formalin challenge by formalin test. It is filed as functional, organism-based.
The nature of series [19]: Ratio of drug concentration in brain to plasma of Sprague-Dawley rat model of chronic constriction injury-induced neuropathic pain at 60 mg/kg, sc measured after 240 mins. Particulars: read-out: BPR. Format: ADME, organism-based.
The nature of series [20]: Drug concentration in Sprague-Dawley rat plasma at 60 mg/kg, sc measured after 190 mins. Format: ADME, organism-based.
Series [21] has as its target MAP kinase-interacting serine/threonine-protein kinase 1 (Homo sapiens, UniProt Q9BUB5). Kind of series: Inhibition of wild-type human full length MKNK1 (M1 to L424 residues) expressed in mammalian expression system assessed as residual binding level at 1 uM by Kinomescan method relative to control.

Sequence of AP2-associated protein kinase 1 (Mus musculus) (Q3UHJ0 whole entry, looked up): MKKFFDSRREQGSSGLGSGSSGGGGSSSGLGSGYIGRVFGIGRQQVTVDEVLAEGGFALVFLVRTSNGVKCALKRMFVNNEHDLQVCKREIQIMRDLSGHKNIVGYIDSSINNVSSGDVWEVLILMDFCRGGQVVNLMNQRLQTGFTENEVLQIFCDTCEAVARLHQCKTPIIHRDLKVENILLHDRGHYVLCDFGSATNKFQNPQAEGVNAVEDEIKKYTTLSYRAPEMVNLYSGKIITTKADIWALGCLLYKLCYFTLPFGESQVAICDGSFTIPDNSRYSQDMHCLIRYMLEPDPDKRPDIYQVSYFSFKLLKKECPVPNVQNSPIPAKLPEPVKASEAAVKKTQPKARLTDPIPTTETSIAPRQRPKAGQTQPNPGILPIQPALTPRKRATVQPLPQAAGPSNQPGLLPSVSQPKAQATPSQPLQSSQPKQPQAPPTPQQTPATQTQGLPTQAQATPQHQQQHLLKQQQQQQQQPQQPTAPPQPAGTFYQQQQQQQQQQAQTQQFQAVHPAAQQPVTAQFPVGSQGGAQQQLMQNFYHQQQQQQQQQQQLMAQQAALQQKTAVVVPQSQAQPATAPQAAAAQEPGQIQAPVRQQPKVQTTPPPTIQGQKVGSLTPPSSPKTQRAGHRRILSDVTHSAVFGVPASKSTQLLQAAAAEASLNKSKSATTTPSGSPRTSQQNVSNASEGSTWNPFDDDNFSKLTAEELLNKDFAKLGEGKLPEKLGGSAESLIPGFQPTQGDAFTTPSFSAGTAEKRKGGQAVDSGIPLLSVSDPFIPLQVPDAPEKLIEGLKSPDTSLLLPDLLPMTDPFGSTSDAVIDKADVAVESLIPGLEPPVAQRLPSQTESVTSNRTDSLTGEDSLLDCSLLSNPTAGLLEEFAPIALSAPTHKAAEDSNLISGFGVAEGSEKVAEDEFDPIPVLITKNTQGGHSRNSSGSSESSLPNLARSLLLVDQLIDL
Sequence of MAP kinase-interacting serine/threonine-protein kinase 1 (Q9BUB5 whole entry, looked up, the tested form may be a part): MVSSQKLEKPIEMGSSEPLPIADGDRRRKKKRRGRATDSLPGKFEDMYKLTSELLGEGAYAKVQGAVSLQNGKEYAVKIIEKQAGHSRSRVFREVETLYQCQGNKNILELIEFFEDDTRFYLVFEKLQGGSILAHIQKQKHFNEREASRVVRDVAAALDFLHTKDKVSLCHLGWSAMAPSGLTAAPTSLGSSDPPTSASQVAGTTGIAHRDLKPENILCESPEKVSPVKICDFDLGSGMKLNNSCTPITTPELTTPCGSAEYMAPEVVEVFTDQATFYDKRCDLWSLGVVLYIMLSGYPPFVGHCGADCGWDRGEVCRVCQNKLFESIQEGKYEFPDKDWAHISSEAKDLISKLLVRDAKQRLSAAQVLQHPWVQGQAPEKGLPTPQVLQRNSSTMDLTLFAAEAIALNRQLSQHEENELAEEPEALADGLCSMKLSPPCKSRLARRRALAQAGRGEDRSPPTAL
Sequence of Phosphatidylinositol 4-phosphate 5-kinase type-1 alpha (Homo sapiens) (Q99755 whole entry, the tested form may be a part): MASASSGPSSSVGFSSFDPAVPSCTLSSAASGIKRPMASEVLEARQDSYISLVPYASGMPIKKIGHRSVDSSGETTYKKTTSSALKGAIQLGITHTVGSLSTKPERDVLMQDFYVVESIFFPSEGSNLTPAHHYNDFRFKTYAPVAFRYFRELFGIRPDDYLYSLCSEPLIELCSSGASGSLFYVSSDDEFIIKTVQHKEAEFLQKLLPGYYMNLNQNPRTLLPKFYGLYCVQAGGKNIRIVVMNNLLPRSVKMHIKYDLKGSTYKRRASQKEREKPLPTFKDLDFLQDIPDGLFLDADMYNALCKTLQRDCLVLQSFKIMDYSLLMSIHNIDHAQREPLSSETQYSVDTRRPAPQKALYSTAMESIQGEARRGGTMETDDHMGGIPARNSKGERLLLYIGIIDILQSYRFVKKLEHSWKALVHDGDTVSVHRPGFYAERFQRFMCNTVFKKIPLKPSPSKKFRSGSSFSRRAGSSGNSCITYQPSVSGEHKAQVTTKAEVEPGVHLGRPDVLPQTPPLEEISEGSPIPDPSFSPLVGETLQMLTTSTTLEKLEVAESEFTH
Sequence of BMP-2-inducible protein kinase (Q9NSY1 whole entry, the tested form may be a part): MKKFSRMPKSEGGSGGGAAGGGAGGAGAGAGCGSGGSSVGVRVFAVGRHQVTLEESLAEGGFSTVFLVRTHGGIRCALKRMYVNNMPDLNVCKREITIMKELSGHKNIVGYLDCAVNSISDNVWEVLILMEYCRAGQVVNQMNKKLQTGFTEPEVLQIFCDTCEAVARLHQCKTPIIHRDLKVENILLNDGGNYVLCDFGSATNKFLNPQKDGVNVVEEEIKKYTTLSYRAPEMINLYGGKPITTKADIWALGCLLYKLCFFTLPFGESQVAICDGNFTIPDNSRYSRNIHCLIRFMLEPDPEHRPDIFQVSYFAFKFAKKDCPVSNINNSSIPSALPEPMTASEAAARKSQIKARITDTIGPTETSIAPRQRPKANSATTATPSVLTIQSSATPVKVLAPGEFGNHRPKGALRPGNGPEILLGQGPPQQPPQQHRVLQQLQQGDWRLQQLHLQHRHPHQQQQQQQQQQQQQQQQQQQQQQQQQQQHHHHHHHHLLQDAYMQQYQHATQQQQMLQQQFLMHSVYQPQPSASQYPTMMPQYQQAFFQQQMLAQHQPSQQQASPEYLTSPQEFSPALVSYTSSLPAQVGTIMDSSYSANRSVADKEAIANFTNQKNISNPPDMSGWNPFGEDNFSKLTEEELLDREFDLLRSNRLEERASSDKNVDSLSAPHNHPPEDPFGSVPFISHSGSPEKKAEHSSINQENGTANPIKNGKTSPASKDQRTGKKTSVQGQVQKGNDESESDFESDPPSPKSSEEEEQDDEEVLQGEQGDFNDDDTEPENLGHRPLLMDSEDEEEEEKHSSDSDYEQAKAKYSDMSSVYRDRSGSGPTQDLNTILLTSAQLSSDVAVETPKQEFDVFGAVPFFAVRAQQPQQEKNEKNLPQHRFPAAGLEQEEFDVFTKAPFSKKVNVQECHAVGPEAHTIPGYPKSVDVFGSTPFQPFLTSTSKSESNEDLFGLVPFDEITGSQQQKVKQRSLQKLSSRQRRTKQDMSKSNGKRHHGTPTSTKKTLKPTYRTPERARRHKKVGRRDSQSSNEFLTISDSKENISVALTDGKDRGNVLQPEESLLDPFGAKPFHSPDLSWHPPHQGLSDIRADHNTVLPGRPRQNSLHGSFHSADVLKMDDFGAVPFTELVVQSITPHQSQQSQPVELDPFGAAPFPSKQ
Sequence of SRSF protein kinase 3 (Homo sapiens) (Q9UPE1 whole entry, the tested form may be a part): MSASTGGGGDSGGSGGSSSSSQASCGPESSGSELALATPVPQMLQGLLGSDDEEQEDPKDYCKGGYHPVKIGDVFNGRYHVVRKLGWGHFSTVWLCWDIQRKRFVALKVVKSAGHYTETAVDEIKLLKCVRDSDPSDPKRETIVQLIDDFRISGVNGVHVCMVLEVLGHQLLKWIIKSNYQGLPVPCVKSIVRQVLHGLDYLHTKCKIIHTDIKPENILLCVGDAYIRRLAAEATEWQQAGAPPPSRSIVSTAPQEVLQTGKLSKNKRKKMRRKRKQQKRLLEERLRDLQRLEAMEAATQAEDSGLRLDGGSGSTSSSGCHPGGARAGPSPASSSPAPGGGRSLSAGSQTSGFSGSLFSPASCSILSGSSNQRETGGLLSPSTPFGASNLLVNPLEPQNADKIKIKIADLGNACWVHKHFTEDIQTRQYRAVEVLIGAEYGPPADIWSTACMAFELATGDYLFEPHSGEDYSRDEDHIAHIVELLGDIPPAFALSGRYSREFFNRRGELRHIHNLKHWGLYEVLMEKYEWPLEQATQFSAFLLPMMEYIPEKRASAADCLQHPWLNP
Sequence of AP2-associated protein kinase 1 (Q2M2I8 whole entry, the tested form may be a part): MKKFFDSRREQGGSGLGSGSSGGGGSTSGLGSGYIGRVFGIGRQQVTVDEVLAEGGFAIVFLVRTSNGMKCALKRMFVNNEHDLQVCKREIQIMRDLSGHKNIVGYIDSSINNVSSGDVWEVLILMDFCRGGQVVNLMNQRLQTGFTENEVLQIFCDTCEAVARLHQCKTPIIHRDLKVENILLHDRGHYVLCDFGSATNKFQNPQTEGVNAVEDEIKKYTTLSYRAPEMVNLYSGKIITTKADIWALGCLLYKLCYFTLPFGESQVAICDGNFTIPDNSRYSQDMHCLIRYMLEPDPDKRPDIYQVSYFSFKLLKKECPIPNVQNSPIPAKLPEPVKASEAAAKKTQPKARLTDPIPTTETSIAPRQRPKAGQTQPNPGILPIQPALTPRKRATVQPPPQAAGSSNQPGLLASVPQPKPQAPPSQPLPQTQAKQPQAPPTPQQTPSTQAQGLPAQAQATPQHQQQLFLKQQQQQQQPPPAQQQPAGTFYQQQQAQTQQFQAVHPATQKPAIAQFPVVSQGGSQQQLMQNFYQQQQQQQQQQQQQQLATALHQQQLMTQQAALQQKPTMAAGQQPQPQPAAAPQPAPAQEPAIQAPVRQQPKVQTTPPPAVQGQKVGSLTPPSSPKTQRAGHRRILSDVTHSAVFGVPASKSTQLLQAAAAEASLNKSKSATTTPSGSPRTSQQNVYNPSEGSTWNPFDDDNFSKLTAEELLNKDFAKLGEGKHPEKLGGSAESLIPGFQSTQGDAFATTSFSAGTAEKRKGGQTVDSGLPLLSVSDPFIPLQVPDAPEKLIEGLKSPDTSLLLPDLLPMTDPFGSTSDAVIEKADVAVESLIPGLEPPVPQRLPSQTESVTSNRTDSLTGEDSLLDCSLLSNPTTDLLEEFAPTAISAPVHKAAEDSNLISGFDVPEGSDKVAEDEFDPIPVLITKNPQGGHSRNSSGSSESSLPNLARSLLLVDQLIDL

Turning to `CC(C)C[C@@H](N)C(=O)Nc1ccc(-c2cnco2)c(OC(F)F)c1`, the concentration in [1] stood at 77 µM; in series [4], 33 µM; in series [11] it was 9.1 µM; in series [12], 7 µM; in series [13], 0.35 µM; in [14] it was 1.1 µM. Also, the Activity in series [2] worked out at 7.6%; in series [7] it was 42%; in series [15] it was 31%; in series [21], 8.4%. The IC50 (commonly the point on the concentration scale where inhibition reaches its midpoint) in series [3] was 120 nM; in [5], above 30000 nM; in [8], 12 nM; in series [9] it was 120 nM; in [16], 1930 nM. Besides, the inhibition (commonly the percentage by which the read-out fell short of the control) in [6] is 62%; in series [17] it was 13%. The “Cp(f)” value in [10] was found to be 1.04 µM. For the same compound, the outcome in [18] was Active. The Kp at 4 h in [19] was 0.5. Moreover, the concentration at 3.167 h in series [20] is 84 µM.
